Publication PMC9697131, “Agomelatine, Ketamine and Vortioxetine Attenuate Energy Cell Metabolism—In Vitro Study” (International Journal of Molecular Sciences, 2022)
Values joined by “and” are separate entries in the source; they are usually repeats but may differ in a detail not shown here. Equal values may be shown once. Read-outs that look alike come from different tables or passages of the source.

How the values were obtained:
[1] = tested on: complex I (NADH dehydrogenase); experiment: Complex I (NADH dehydrogenase) activity, spectrophotometric; format: biochemical; details: 100 μM drug, pig brain mitochondria, mean ± SD
Procedure: (§1) Pig brains were obtained from a slaughterhouse. Mitochondrial fraction isolation and purification from brain cortex were performed as previously described. Briefly, grey matter from pig brains was homogenized and crude mitochondrial fraction was isolated and then centrifuged on the sucrose gradient to obtain purified mitochondrial fraction. The freshly purified mitochondria were kept on ice until the assays were performed and were used for measurements of the mitochondrial oxygen consumption rate, measurements of ATP and ROS formation. Frozen mitochondria (stored at −70 °C) were used for the following enzyme activity measurements: ETC complexes, citrate synthase (CS) and malate dehydrogenase (MDH) activity.
(§2) Ultrasonication and incubation of mitochondria with the tested drugs for 30 min at 30 °C was performed before measurement with a corresponding drug-free control (DMSO) for every measurement. Mitochondrial enzymes activities were determined spectrophotometrically as absorbance using a GENESYS 180 UV-Vis Spectrophotometer (Thermo Fisher Scientific, Waltham, MA, USA).
The reaction mixture consisted of KH2PO4, MgCl2 and KCN and the reaction was started by adding decylubiquinone and NADH. The rotenone-sensitive NADH oxidation reaction was measured at 340 nm for 5 min. The final protein concentration was 150 µg/mL and final drugs concentrations 2.5, 5, 10, 50 and 100 µM. Drug-free control (DMSO) was used as a control for each measurement.

[2] = target: T1, malate dehydrogenase (MDH) (Sus scrofa, UniProt P00346); experiment: Malate dehydrogenase activity; format: biochemical, pig; details: mean, N=3
T1 construct: Frozen mitochondria (stored at −70 °C) were used for the following enzyme activity measurements: ETC complexes, citrate synthase (CS) and malate dehydrogenase (MDH) activity; from tissue; host or cells: pig brain cortex, purified mitochondrial fraction (frozen, sonicated)
T1 sequence (P00346 25-338): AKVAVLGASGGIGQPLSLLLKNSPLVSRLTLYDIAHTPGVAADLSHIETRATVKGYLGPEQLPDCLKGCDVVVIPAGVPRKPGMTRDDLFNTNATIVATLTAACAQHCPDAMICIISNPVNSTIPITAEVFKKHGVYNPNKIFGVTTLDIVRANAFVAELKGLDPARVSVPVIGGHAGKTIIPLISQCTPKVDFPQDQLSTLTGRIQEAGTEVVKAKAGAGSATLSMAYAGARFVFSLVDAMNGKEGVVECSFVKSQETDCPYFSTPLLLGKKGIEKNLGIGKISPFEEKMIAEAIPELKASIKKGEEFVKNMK
Procedure: as §1, §2
The conversion of oxaloacetate to malate was used to measure the activity, and it was measured at 340 nm for 3 min. The reaction was initiated by adding oxaloacetate and nicotinamide adenine dinucleotide (NADH). […]

MAO-A = target: T2, MAO-A (Sus scrofa, UniProt Q6Q2J0); experiment: MAO-A activity, radiolabeled [3H]serotonin substrate; format: biochemical, pig; details: for MAO-A Inhibition (type): 0.1–300 µM; for MAO-A Hillslope / MAO-A Residual Activity: mean
T2 construct: from tissue; host or cells: pig brain mitochondria
T2 sequence (Q6Q2J0 1-527): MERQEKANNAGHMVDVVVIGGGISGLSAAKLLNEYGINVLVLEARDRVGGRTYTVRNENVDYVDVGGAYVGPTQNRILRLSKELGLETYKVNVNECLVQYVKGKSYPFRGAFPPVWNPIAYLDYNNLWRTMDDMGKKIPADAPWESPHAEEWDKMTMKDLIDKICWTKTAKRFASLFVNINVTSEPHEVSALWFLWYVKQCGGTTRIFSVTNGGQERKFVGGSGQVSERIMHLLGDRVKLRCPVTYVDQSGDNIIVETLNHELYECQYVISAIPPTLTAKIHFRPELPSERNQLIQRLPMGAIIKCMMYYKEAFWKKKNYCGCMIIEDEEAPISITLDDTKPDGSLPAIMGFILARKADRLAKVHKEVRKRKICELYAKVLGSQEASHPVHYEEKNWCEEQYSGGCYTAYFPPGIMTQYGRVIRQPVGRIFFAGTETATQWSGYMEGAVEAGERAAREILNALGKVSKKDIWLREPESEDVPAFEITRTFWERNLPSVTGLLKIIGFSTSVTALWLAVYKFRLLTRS
Procedure: as §1
(§3) Mitochondria in KH buffer at final concentration of 800 µg/mL were preincubated with the tested drugs in a final concentration range of 0.1–300 µM for 60 min at 37 °C. For each measurement, there was a corresponding drug-free control (DMSO). Radiolabeled substrates ([^3H]serotonin for MAO-A and [^14C]PEA for MAO-B) were added to initiate the reaction. The reaction was carried out at 37 °C for 20 min for MAO-A and for 1 min for MAO-B, and the reaction was stopped by hydrochloric acid. The radioactivity of the organic phases of the extracts were measured by liquid scintillation counting (LS 6000IC, Beckman Instruments, Inc., Fullerton, CA, USA).
(§4) The inhibition of respiration rate and MAO activity were analyzed by A four-parameter logistic regression with Prism software (GraphPad Software, San Diego, CA, USA) was used to analyze the respiratory rate inhibition and activity of MAO. […] The IC50 represents the drug concentration required to inhibit the difference between the baseline and the residual value of the mitochondrial oxygen flux or MAO activity by 50%.

MAO-B = target: T3, MAO-B (Sus scrofa, UniProt Q6PLK3); experiment: MAO-B activity, radiolabeled [14C]PEA substrate; format: biochemical, pig; details: for MAO-B Inhibition (type): 0.1–300 µM; for MAO-B Hillslope / MAO-B Residual Activity: mean
T3 construct: from tissue; host or cells: pig brain mitochondria
T3 sequence (Q6PLK3 1-520): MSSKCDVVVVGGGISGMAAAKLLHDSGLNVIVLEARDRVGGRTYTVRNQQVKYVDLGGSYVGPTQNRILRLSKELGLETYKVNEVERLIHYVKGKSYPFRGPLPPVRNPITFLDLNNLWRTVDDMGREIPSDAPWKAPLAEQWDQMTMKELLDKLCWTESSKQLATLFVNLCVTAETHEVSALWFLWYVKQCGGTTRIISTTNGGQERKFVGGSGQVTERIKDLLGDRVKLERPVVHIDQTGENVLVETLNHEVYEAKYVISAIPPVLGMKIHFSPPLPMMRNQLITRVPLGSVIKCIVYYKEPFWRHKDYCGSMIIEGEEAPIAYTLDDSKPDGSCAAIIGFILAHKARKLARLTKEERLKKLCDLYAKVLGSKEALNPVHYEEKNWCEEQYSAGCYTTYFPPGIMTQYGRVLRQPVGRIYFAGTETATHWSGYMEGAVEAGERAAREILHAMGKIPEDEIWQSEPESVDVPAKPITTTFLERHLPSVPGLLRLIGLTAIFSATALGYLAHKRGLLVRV
Procedure: as §1, §3, §4

[3] = mean ± SEM, 4 measurements, read-out: MAO-A IC50

Structure (SMILES)	complex I activity (relative to control = 100%) ([1]; listed as VOR)	MDH (% of Control) ([2]; 10 μM drug)	MDH (% of Control) ([2]; 100 μM drug)	MAO-A Inhibition (type) (MAO-A)	IC50 (MAO-A; [3]) [µM]	MAO-A Hillslope (MAO-A; 4 measurements)	MAO-A Residual Activity (MAO-A; 4 measurements) [rel.u.]	MAO-B Inhibition (type) (MAO-B)	IC50 (MAO-B; mean ± SEM, 4 measurements, read-out: MAO-B IC50) [µM]	MAO-B Hillslope (MAO-B; 4 measurements)	MAO-B Residual Activity (MAO-B; 4 measurements) [rel.u.]	complex I activity (relative to control = 100%) [1] [%]	IC50 (MAO-A) [µM]	IC50 (MAO-B) [µM]	MAO-B Inhibition (type) (MAO-B; listed as AGO)
Cc1ccc(Sc2ccccc2N2CCNCC2)c(C)c1 [vortioxetine]	5.5 ± 1.8% and 5.5%	106.9 % of Control	100.2 % of Control	partial	7.33	1.76	0.109	partial	18.2	2.58	0.229	–	–	–	–
CNC1(c2ccccc2Cl)CCCCC1=O (stereo not shown) [ketamine]	–	97.4 % of Control	101.7 % of Control	partial	–	1.50	0.259	weak	–	2.12	0.707	91.2 ± 6.6	10.4	51.2	–
COc1ccc2cccc(CCNC(C)=O)c2c1 [agomelatine]	–	101.7 % of Control	101.0 % of Control	partial	8.2	3.40	0.190	none	–	–	–	73.7 ± 5.1	–	–	did not affect its activity at all
